System: Bintje, Nicola and Charlotte potatoes
Experiment: Sprout-inhibiting treatment of stored potatoes over 6 months, sprout weights (Example 1)
Assay type: in vivo
Details: used alone
Procedure: The sprout-inhibiting treatments were carried out over a 6-month period.
The mint oil used contained about 70% L-carvone and the clove oil used contained about 90% eugenol.
The tested potatoes were Bintje, Nicola and Charlotte varieties.
An anti-sprouting composition A consisting of a mixture of clove oil (supplied by Charabot (Grasse)/ mint oil (supplied by Charabot (Grasse) at 2:1 v/v was prepared. The densities of mint and clove are respectively 0.94 and 1.04. This composition was applied to the potatoes using Electrofog Xeda 3000 equipment at an output temperature of 210° C., • at an initial dose of 90 grams of composition per tonne of potatoes, • at subsequent doses of 30 grams of composition per tonne of potatoes every three weeks.
For comparison, some potatoes were treated: • B: either with mint oil alone
at an initial dose of 90 grams of mint oil per tonne of potatoes,
at subsequent doses of 30 grams of mint oil per tonne of potatoes every three weeks; • C: or with clove oil alone
at an initial dose of 90 grams of clove oil per tonne of potatoes,
at subsequent doses of 30 grams of clove oil per tonne of potatoes every three weeks; • D: or with CIPC (Xedamate Aerosol 88 containing 20% CIPC) by thermal fogging:
at an initial dose of 60 grams of Xedamate Aerosol 88 per tonne of potatoes, […]

## L-carvone
  Anti-sprouting activity relative to reference product CIPC: comparable with the reference product (CIPC)

— patent US20130072383A1, “METHOD FOR ANTI-SPROUTING AND POSSIBLY FUNGICIDAL TREATMENT OF BULBS AND/OR TUBERS USING CLOVE OIL AND MINT OIL” (priority 2010, published 2013)
